We go through twelve molecules from patent US11028086B2, “Pyrido-imidazo rifamycins” (Biofer S.p.A., priority 2017, dated 2021).

Values after ≈ are worked out from the molar mass of the structure shown.

Type in all cases: cell-based
Experiment [1] relates to Escherichia Coli ATCC 25922. As to the kind of experiment: MIC by serial dilution, Strain C. Conditions: ATCC25922, range between last concentration with growth and first without growth. On the procedure:
(§1) The MICs were calculated using the serial dilution method, and are expressed as the range between the last concentration at which the bacterial strain grows and the first concentration at which the strain tested no longer grows.

In another experiment the test system is Escherichia Coli NK12. As to the kind of experiment: MIC by serial dilution, Strain D. Conditions: COLINK12, range between last concentration with growth and first without growth. On the procedure:
as §1

The test system of experiment [2] is Staphylococcus aureus IM149. As to the kind of experiment: MIC by serial dilution, Strain A. The following applies: for MIC: range between last concentration with growth and first without growth. On the procedure: as §1
The test system of experiment [3] is Bacillus Subtilis ATCC 6633. The experiment in a line: MIC by serial dilution, Strain B. The following applies: ATCC6633, range between last concentration with growth and first without growth. On the procedure: as §1
For experiment [4], the system named is Gram-positive and Gram-negative strains. As to the kind of experiment: Antibacterial activity, overall statements on the MIC test. On the procedure:
as §1

One may read the MIC as the lowest concentration that inhibits growth of the organism.

As for `CO[C@H]1/C=C/O[C@@]2(C)Oc3c(C)c(O)c4c(O)c(c5c(nc6cc(CO)ccn65)c4c3C2=O)NC(=O)/C(C)=C\C=C\[C@H](C)[C@H](O)[C@@H](C)[C@@H](O)[C@@H](C)[C@H](OC(C)=O)[C@@H]1C` [Example 1, 4′-methylol-4-desoxypyrido[1′,2′-1,2]imidazo[5,4-c]rifamycin SV], the MIC lay within 8 to 16 µg/mL (≈ 9.98 to 20 µM) in experiment [1], 4 to 8 µg/mL (≈ 4.99 to 9.98 µM) in the experiment with Escherichia Coli NK12, 8 to 16 µg/mL (≈ 9.98 to 20 µM) in experiment [2] and 2 to 4 µg/mL (≈ 2.49 to 4.99 µM) in experiment [3].

For the molecule `CO[C@H]1/C=C/O[C@@]2(C)Oc3c(C)c(O)c4c(O)c(c5c(nc6cc(C=O)ccn65)c4c3C2=O)NC(=O)/C(C)=C\C=C\[C@H](C)[C@H](O)[C@@H](C)[C@@H](O)[C@@H](C)[C@H](OC(C)=O)[C@@H]1C` [Example 2, 4′-formyl-4-desoxypyrido[1′,2′-1,2]imidazo[5,4-c]rifamycin SV], the MIC (in experiment [1]; against Escherichia Coli NK12; in experiment [2]; in experiment [3]) was more than 64 µg/mL each time.

Turning to `CO[C@H]1/C=C/O[C@@]2(C)Oc3c(C)c(O)c4c(O)c(c5c(nc6cc(/C=N/N7CCCCC7)ccn65)c4c3C2=O)NC(=O)/C(C)=C\C=C\[C@H](C)[C@H](O)[C@@H](C)[C@@H](O)[C@@H](C)[C@H](OC(C)=O)[C@@H]1C` [Example 4, 4′-[(1-piperidinyl)iminomethyl]-4-desoxypyrido[1′,2′-1,2]imidazo[5,4-c]rifamycin SV], the MIC in experiment [1] was in the range of 4 to 8 µg/mL (≈ 4.54 to 9.07 µM); against Escherichia Coli NK12, 8 to 16 µg/mL (≈ 9.07 to 18.1 µM); in experiment [2] it was 0.03 to 0.06 µg/mL (≈ 0.034 to 0.068 µM); in experiment [3], 0.062 to 0.125 µg/mL (≈ 0.0703 to 0.142 µM).

For the molecule `CO[C@H]1/C=C/O[C@@]2(C)Oc3c(C)c(O)c4c(O)c(c5c(nc6cc(/C=N/N(C)C)ccn65)c4c3C2=O)NC(=O)/C(C)=C\C=C\[C@H](C)[C@H](O)[C@@H](C)[C@@H](O)[C@@H](C)[C@H](OC(C)=O)[C@@H]1C` [Example 5, 4′-[(N,N-dimethylamino)iminomethyl]-4-desoxypyrido[1′,2′-1,2]imidazo[5,4-c]rifamycin SV], the MIC in experiment [1] was 32 to 64 µg/mL (≈ 38 to 76 µM); in the experiment on Escherichia Coli NK12 it was 32 to 64 µg/mL (≈ 38 to 76 µM); in experiment [2], 0.03 to 0.06 µg/mL (≈ 0.0356 to 0.0713 µM); in experiment [3], 0.062 to 0.125 µg/mL (≈ 0.0736 to 0.148 µM).

Take `CO[C@H]1/C=C/O[C@@]2(C)Oc3c(C)c(O)c4c(O)c(c5c(nc6cc(/C=N/NC(=O)c7ccncc7)ccn65)c4c3C2=O)NC(=O)/C(C)=C\C=C\[C@H](C)[C@H](O)[C@@H](C)[C@@H](O)[C@@H](C)[C@H](OC(C)=O)[C@@H]1C` [Example 6, 4′-[(4-carboxyamidopyridyl)iminomethyl]-4-desoxypyrido[1′,2′-1,2]imidazo[5,4-c]rifamycin SV]: the minimum inhibitory concentration (MIC) in experiment [1] is more than 64 µg/mL; against Escherichia Coli NK12 it was 32 to 64 µg/mL (≈ 34.8 to 69.6 µM); in experiment [2], more than 64 µg/mL; in experiment [3] it was 8 to 16 µg/mL (≈ 8.71 to 17.4 µM).

As to `CO[C@H]1/C=C/O[C@@]2(C)Oc3c(C)c(O)c4c(O)c(c5c(nc6ccc(/C=N/N(C)C)cn65)c4c3C2=O)NC(=O)/C(C)=C\C=C\[C@H](C)[C@H](O)[C@@H](C)[C@@H](O)[C@@H](C)[C@H](OC(C)=O)[C@@H]1C` [Example 7, 5′-[(N,N-dimethylamino)iminomethyl]-4-desoxypyrido[1′,2′-1,2]imidazo[5,4-c]rifamycin SV], the MIC in experiment [1] was in the range of 32 to 64 µg/mL (≈ 38 to 76 µM); with Escherichia Coli NK12 it was 32 to 64 µg/mL (≈ 38 to 76 µM); in experiment [2], 0.03 to 0.06 µg/mL (≈ 0.0356 to 0.0713 µM); in experiment [3], 0.062 to 0.125 µg/mL (≈ 0.0736 to 0.148 µM).

Take `CO[C@H]1/C=C/O[C@@]2(C)Oc3c(C)c(O)c4c(O)c(c5c(nc6ccc(/C=N/N7CCCCC7)cn65)c4c3C2=O)NC(=O)/C(C)=C\C=C\[C@H](C)[C@H](O)[C@@H](C)[C@@H](O)[C@@H](C)[C@H](OC(C)=O)[C@@H]1C` [Example 8, 5′-[(1-piperidinyl)iminomethyl]-4-desoxypyrido[1′,2′-1,2]imidazo[5,4-c]rifamycin SV]: the MIC is 4 to 8 µg/mL (≈ 4.54 to 9.07 µM) in experiment [1], 8 to 16 µg/mL (≈ 9.07 to 18.1 µM) against Escherichia Coli NK12, 0.03 to 0.06 µg/mL (≈ 0.034 to 0.068 µM) in experiment [2] and 0.062 to 0.125 µg/mL (≈ 0.0703 to 0.142 µM) in experiment [3].

In the case of `CO[C@H]1/C=C/O[C@@]2(C)Oc3c(C)c(O)c4c(O)c(c5c(nc6ccc(/C=N/N7CCCCC7)cn65)c4c3C2=O)NC(=O)/C(C)=C\C=C\[C@H](C)[C@H](O)[C@@H](C)[C@@H](O)[C@@H](C)[C@H](O)[C@@H]1C` [Example 11, 25-desacetyl-5′-[(1-piperidinyl)iminomethyl]-4-desoxypyrido[1′,2′-1,2]imidazo[5,4-c]rifamycin SV], the MIC lay within 32 to 64 µg/mL (≈ 38.1 to 76.2 µM) in experiment [1], 32 to 64 µg/mL (≈ 38.1 to 76.2 µM) in the experiment on Escherichia Coli NK12, 8 to 16 µg/mL (≈ 9.52 to 19 µM) in experiment [2] and 4 to 8 µg/mL (≈ 4.76 to 9.52 µM) in experiment [3].

Consider `CO[C@H]1/C=C/O[C@@]2(C)Oc3c(C)c(O)c4c(O)c(c5c(nc6ccc(/C=N/N(C)C)cn65)c4c3C2=O)NC(=O)/C(C)=C\C=C\[C@H](C)[C@H](O)[C@@H](C)[C@@H](O)[C@@H](C)[C@H](O)[C@@H]1C` [Example 12, 25-desacetyl-5′-[(N,N-dimethylamino)iminomethyl]-4-desoxypyrido[1′,2′-1,2]imidazo[5,4-c]rifamycin SV], for which the MIC in experiment [1] was more than 64 µg/mL; with Escherichia Coli NK12 it was more than 64 µg/mL; in experiment [2] it was 8 to 16 µg/mL (≈ 10 to 20 µM); in experiment [3] it was 4 to 8 µg/mL (≈ 5 to 10 µM).

For the molecule `CO/N=C/c1ccn2c(c1)nc1c3c4c5c(C)c(O)c3c(O)c(c12)NC(=O)/C(C)=C\C=C\[C@H](C)[C@H](O)[C@@H](C)[C@@H](O)[C@@H](C)[C@H](OC(C)=O)[C@H](C)[C@@H](OC)/C=C/O[C@@](C)(O5)C4=O` [Example 13, 4′-(N-methoxy)-iminomethyl-4-desoxypyrido[1′,2′-1,2]imidazo[5,4-c]rifamycin SV], the “antibacterial activity (in words)” value in experiment [4] is “fully comparable to that of RFX”. In addition, the MIC in experiment [1] was 8 to 16 µg/mL (≈ 9.65 to 19.3 µM); against Escherichia Coli NK12 it was 8 to 16 µg/mL (≈ 9.65 to 19.3 µM); in experiment [2] it was less than 0.015 µg/mL; in experiment [3], less than 0.015 µg/mL. In experiment [2], the “MIC against strain A compared with RFX” value is listed as “lower than RFX”.

As to `CO[C@H]1/C=C/O[C@@]2(C)Oc3c(C)c(O)c4c(O)c(c5c(nc6cc(/C=N/C(C)C)ccn65)c4c3C2=O)NC(=O)/C(C)=C\C=C\[C@H](C)[C@H](O)[C@@H](C)[C@@H](O)[C@@H](C)[C@H](OC(C)=O)[C@@H]1C` [Example 14], the “antibacterial activity (in words)” value in experiment [4] is “fully comparable to that of RFX”. Moreover, the MIC in experiment [1] is 8 to 16 µg/mL (≈ 9.51 to 19 µM); with Escherichia Coli NK12, 8 to 16 µg/mL (≈ 9.51 to 19 µM); in experiment [2] it was 0.03 to 0.06 µg/mL (≈ 0.0357 to 0.0713 µM); in experiment [3], 8 to 16 µg/mL (≈ 9.51 to 19 µM). The “MIC against strain A compared with RFX” value in experiment [2] is “lower than RFX”.

Turning to `CO[C@H]1/C=C/O[C@@]2(C)Oc3c(C)c(O)c4c(O)c(c5c(nc6cc(/C=N/N7CCOCC7)ccn65)c4c3C2=O)NC(=O)/C(C)=C\C=C\[C@H](C)[C@H](O)[C@@H](C)[C@@H](O)[C@@H](C)[C@H](OC(C)=O)[C@@H]1C` [Example 15], the “antibacterial activity (in words)” value in experiment [4] was “fully comparable to that of RFX”. The MIC was 8 to 16 µg/mL (≈ 9.05 to 18.1 µM) in experiment [1], 4 to 8 µg/mL (≈ 4.52 to 9.05 µM) against Escherichia Coli NK12, less than 0.015 µg/mL in experiment [2] and 8 to 16 µg/mL (≈ 9.05 to 18.1 µM) in experiment [3]. Also, the “MIC against strain A compared with RFX” value in experiment [2] is “lower than RFX”.
